Assay results as given in US9718835B2 (China Medical University Hospital, priority 2013, dated 2017).

System: Topo II
Experiment: Topo II activity assay, nuclear extracts of treated A-549 cells, catenated kDNA
Assay type: cell-based, human
Description: First, we determined the effect of 9a on cell cycle distribution using flow cytometry analysis. […] Because it has been shown that 1-Topo I-DNA covalent complexes enhance the transcription-dependent degradation of Topo I via a 26S proteasome pathway,^32 the effects of 9a on the expression levels of Topo I and Topo II were investigated. […] Compound 9a acts directly on Topo I and results in the accumulation of covalent Topo I-DNA complexes followed by proteasomal Topo I degradation, which is the same effect as 1 and contributes to 9a's cytotoxicity.
Topo I activity test was performed using an assay kit (TopoGEN) according to the manufacturer's instructions. Nuclear extracts from 9a-treated A-549 cells were incubated with supercoiled DNA (for Topo I) or catenated kDNA (for Topo II) for 30 min at 37° C. Reaction mixture was separated by is 1% agarose gel in 1×TAE buffer. The gel was stained with ethidium bromide and photographed using Gel Doc XR (Bio-Rad).

## COc1cc([C@@H]2c3cc4c(cc3[C@@H](O[C@@H]3O[C@@H]5CO[C@@H](C)O[C@H]5[C@H](O)[C@H]3O)[C@H]3COC(=O)[C@H]23)OCO4)cc(OC)c1O [etoposide]
  Topo II decatenation of kDNA: effectively blocked the decatenation of kDNA
